Laboratory results published in US20250108088A1, “REGENERATIVE PEPTIDES AND METHODS FOR USE THEREOF” (priority 2023, published 2025).

Key:
Type in all cases: cell-based
[1] = tested on: Staphylococcus aureus USA300 (NRS384), ST80, JE2, MRSA col; assay: Diffusion agar plate method, zone of inhibition; details: 62.5 μg/ml to 1000 μg/ml; FIG. 5
Protocol: (§1) Cell culture: Cultures of each bacterial strain were prepared by inoculating on Muller Hinton Agar (MHA) medium. After overnight incubation at 37° C., the density of the bacterial cells was compared to the McFarland turbidity standard (0.5).
(§2) Plates were swabbed with McFarland 0.5 inoculum of each test bacteria. […] serial dilutions of the peptides were prepared and 20 μl of compound were dropped onto the MHA. Antibiotic disc served as a positive control and vehicle alone served as the negative control. Plates were incubated for 16-18 hours and assessed for antibacterial activity. Zones of inhibition were measured for each TA dilution and compared with the controls.

[2] = tested on: Pseudomonas aeruginosa ATCC 27853; assay: Diffusion agar plate method, zone of inhibition; details: 62.5 μg/ml to 1000 μg/ml; FIG. 5
Protocol: as §1, §2

[3] = tested on: Acinetobacter baumannii ATCC 196062; assay: Diffusion agar plate method, zone of inhibition; details: 62.5 μg/ml to 1000 μg/ml; FIG. 5, FIG. 10
Protocol: as §1, §2

[4] = tested on: Staphylococcus aureus, Streptococcus pneumoniae, Klebsiella pneumoniae, Pseudomonas aeruginosa, Acinetobacter baumannii; assay: Antimicrobial assays, growth of bacterial strains
Protocol: Infection is another perturbation that causes fibrosis and may delay or inhibit wound healing. To determine if the peptides of the instant disclosure affect the growth of bacteria, and thus may be appropriate as antimicrobial peptides to be used in anti-fibrotic treatments, growth of the following bacterial strains was tested with the exemplary peptides: Staphylococcus aureus: USA300, ST80, JE2, and MRSA col; Streptococcus pneumoniae: DCC1335 and D39; Klebsiella pneumoniae; Pseudomonas aeruginosa; and Acinetobacter baumannii. […] Thus, in some embodiments, the peptides of the instant disclosure may bacterial growth, by a least 20%, at least 30%, at least 40%, at least 50%, at least 60%, at least 70%, or at least 80% relative to the control.
To determine which peptides may be used to inhibit the growth of bacteria in tissue, the minimum inhibitory and bactericidal concentrations of exemplary peptides against both Gram-positive and Gram-negative bacteria were assessed. […]
The antimicrobial effects of the exemplary peptides were assessed in the following bacterial strains: Staphylococcus aureus: USA300, ST80, JE2, and MRSA col; Streptococcus pneumoniae: DCC1335 and D39; Klebsiella pneumoniae ATCC 10031; Pseudomonas aeruginosa ATCC 27853; and Acinetobacter baumannii ATCC 196062. […]

[5] = tested on: Acinetobacter baumannii ATCC 196062; assay: Minimum bactericidal concentration (MBC); details: agar plates; FIG. 9
Protocol: (§3) The minimum bactericidal concentration (MBC) test determines the lowest concentration at which an antimicrobial agent will kill a particular microorganism. The MBC is determined using a series of steps, undertaken after a Minimum Inhibitory Concentration (MIC) test has been completed. o determine the MBC, the dilution representing the MIC and at least two of the more concentrated test product dilutions are plated and enumerated to determine viable CFU/ml. The […] of the peptides was determined as the lowest concentration in which colony forming units (CFU) values were <5 colonies/10 μl of culture.

[6] = tested on: Klebsiella pneumoniae ATCC 10031; assay: Minimum bactericidal concentration (MBC); details: agar plates; FIG. 9
Protocol: as §3

[7] = tested on: Staphylococcus aureus ST80; assay: Minimum bactericidal concentration (MBC); details: agar plates; FIG. 9
Protocol: as §3

[8] = tested on: interleukin-8 (IL-8) production in human fibroblasts; assay: Fibroblast inflammation assay (LPS-induced IL-8, ELISA); details: N = 3, 5 μg/mL LPS, 24 hours
Protocol: Inflammation in fibroblasts leads to the production of the chemokine interleukin-8 (IL-8), which stimulates fibroblast to myofibroblast transition (MFT) thereby enhancing scar formation. To determine if the peptides of the instant disclosure affect fibroblast response to inflammation and fibroblast IL-8 production, the following assays were performed.
Human fibroblasts were grown as described above. HNDFs were plated in 96 well plates at a concentration of 1×10^4 cells/well and allowed to incubate overnight. The next day cells were dosed with 5 μg/mL of LPS with and without the peptides. The negative control contained only media and vehicle, while the positive control was dosed with lipopolysaccharides (LPS) and dexamethasone (50 μg/ml). After 24 hours, the media was removed to measure IL6 and IL8 cytokine levels using ELISA. A standard curve was plotted in excel. All data were blank subtracted and then fit onto the curve to calculate cytokine concentrations.

[9] = tested on: Normal human dermal fibroblasts (HNDF); assay: Myofibroblast transition assay (MFT), aSMA immunofluorescence; details: N = 3; for Myofibroblast transition (MFT), aSMA/cell, % change relative to control: TGF-Beta induced HNDF, control of no peptide
Summary of the method: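 HNDFs serum-starved (1% FBS) 4 h, then stimulated with 20 ng/ml TGF-beta plus peptide at various concentrations for 5 days. Fixed cells immunostained for aSMA with DAPI counterstain, imaged by cytometer; aSMA/DAPI ratio gives aSMA per cell, normalized to no-peptide control.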

[10] = tested on: Pseudomonas aeruginosa ATCC 27853; assay: Broth microdilution method (MIC50/MIC90)
Protocol: as §1
(§4) Ten-fold serial dilution of the peptide along with controls were prepared in Mueller Hinton Broth (MHB) media in a total volume of 50 μl in 96 well plates. Additionally, 50 μl of the diluted standard inoculum (1:150 in MHB media) were added to each of the well plates. The plates were read at OD600 nm. MIC50 and MIC90 curves were calculated from the plate readout. Each sample was run in duplicate.

[11] = tested on: Acinetobacter baumannii ATCC 196062; assay: Broth microdilution method (MIC50/MIC90)
Protocol: as §1, §4

[12] = tested on: Klebsiella pneumoniae ATCC 10031; assay: Broth microdilution method (MIC50/MIC90)
Protocol: as §1, §4

[13] = tested on: Staphylococcus aureus strains, including the MRSA col strain; assay: Broth microdilution method (MIC50/MIC90)
Protocol: as §1, §4

FAYCRSKGLRKRLRKFRNK [MBb32] was tested, and the “agar zone of inhibition, inhibiting bacterial growth” value (shortened to “agar zone of inhibition”) [1] was “effective”, the “agar zone of inhibition” value [2] was “effective” and the “agar zone of inhibition” value [3] was “effective”. For the same sequence, the “inhibition of bacterial growth among those peptides tested” value [4] was “strongest effect”, the “minimum bactericidal concentration (MBC), bactericidal effect” value (shortened to “minimum bactericidal concentration (MBC)”) [5] was “bactericidal effect” and the “minimum bactericidal concentration (MBC)” value [6] was “bactericidal effect”. For the same sequence, the “minimum bactericidal concentration (MBC)” value [7] was “bactericidal effect”, the “Fibroblast induced chemokine production (IL-8) induced by LPS (% change relative to control)” value ([8]; 100 ug/ml peptide) was 4% (p = .054) and the “Fibroblast induced chemokine production (IL-8) induced by LPS (% change relative to control)” value ([8]; 1000 ug/ml peptide) was 29% (p = 0.035). For the same sequence, the “Myofibroblast transition (MFT), aSMA/cell, % change relative to control” value ([9]; 100 ng/ml peptide) was −0.2592%, the “Myofibroblast transition (MFT), aSMA/cell, % change relative to control” value ([9]; 1000 ng/ml peptide) was −0.3087% and the “MFT, Representative value from experiments (% change relative to control)” value ([9]; most effective significant concentration of 10, 100, 1000 ng/ml) was −0.3087 p = (0.039) %. For the same sequence, the “MIC50, growth inhibition of bacteria in broth” value (“MIC50, growth inhibition” below) [10] was “low MIC50”, the “MIC50, growth inhibition” value [11] was “lowest MIC50” and the “MIC50, growth inhibition” value [12] was “low MIC50”. The “MIC50, growth inhibition” value [13] was “low MIC50”.
